Experimental data published in article PMC8622385, “Metabolites of Prickly Rose: Chemodiversity and Digestive-Enzyme-Inhibiting Potential of Rosa acicularis and the Main Ellagitannin Rugosin D” (Plants, 2021).
Each block holds one compound with its values, some of them ahead of it.

Tests used:
[1] = biological target: T1, α-amylase from the human pancreas (Homo sapiens, UniProt P04746); assay: HPLC microfractionation with post-column pancreatic α-amylase inhibition (dyed starch); assay type: biochemical; settings: HPLC zone of R. acicularis leaf extract (July sample), 30 s fractions
T1 construct: α-amylase from human pancreas; purchased Lee Biosolutions, Inc. Cat. No. 120-15; host or cells: human pancreas (tissue-derived)
T1 sequence (P04746 16-511): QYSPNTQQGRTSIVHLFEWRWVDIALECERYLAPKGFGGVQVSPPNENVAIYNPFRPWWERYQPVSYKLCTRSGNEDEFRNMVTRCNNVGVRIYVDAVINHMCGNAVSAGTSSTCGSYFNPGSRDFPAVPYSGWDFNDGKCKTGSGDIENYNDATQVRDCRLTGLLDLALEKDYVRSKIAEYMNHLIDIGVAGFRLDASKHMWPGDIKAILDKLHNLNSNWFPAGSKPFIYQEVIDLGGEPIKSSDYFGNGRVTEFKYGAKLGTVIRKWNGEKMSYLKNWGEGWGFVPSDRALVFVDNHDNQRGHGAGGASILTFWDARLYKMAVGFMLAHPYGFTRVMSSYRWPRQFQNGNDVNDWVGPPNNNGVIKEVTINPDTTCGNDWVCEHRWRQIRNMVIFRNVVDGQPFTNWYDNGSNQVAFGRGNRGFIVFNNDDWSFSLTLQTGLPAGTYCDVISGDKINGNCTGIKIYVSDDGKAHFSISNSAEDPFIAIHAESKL
Method: The probe of the extract was separated by HPLC, and fractions were eluted every 30 sec, collected, dried and mixed with pancreatic α-amylase. The hydrolytic activity of amylase was studied spectrophotometrically using starch azure as a substrate.
HPLC-PDA-ESI-tQ-MS conditions (Section 3.4) were used to separate the enlarged volume of R. acicularis leaf extract (July sample; 25 μL). The eluates (60 µL) were collected every 30 s by an automated fraction collector, a Shimadzu FRC-10A, and dried under a stream of N2. The eluate residue was dissolved in 50% methanol (50 µL) and added to 50 µL of water, 2.5 mL of Remazol-Brilliant-Blue-R-dyed starch (2% suspension in phosphate buffer, pH of 6.8) and 500 μL α-amylase from the human pancreas (0.4 U/mL), incubated for 50 min (37 °C) and the absorbance was measured at 620 nm. […] The value of 100% destruction of Remazol-Brilliant-Blue-R-dyed starch (or 0% content of intact starch compound) was measured for the eluate with a retention time of 0.5–1.0 min.

[2] = biological target: T2, porcine pancreatic amylase (Sus scrofa, UniProt P00690); assay: Simulated gastrointestinal digestion of artificial substrate mixture, amylase activity (p-nitrophenol marker, HPLC-DAD); assay type: biochemical; settings: 1000 μg/mL; control = 100% of enzyme activity
T2 construct: α-amylase from porcine pancreas; purchased Sigma-Aldrich Cat. No. 6255; host or cells: porcine pancreas (tissue-derived)
T2 sequence (P00690 16-511): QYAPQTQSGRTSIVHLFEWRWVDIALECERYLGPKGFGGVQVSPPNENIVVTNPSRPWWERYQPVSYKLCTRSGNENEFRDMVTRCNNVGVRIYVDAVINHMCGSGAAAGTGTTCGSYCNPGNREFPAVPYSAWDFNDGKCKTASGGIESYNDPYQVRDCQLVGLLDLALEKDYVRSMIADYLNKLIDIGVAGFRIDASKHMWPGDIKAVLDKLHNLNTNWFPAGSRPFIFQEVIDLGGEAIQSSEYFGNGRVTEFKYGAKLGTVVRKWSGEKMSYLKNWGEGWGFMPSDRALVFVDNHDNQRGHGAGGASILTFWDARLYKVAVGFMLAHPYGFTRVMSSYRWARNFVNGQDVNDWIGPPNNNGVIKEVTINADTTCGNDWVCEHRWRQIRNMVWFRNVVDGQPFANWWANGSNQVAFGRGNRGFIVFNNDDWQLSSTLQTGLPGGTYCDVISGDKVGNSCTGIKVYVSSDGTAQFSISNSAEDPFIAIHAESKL
Text: (§1) To study the inhibitory potential of R. acicularis extracts on the digestive enzymes, we used the standardized static, simulated gastrointestinal digestion method of Minekus et al., based on physiologically relevant conditions of digestion. In brief, the artificial substrate mixture, including ethylidene-p-nitrophenyl-α-D-maltoheptaoside (as a carbohydrate model), Nα-benzoyl-L-arginine-7-amino-4-methylcoumarin hydrochloride (as a protein model) and 4-methylumbelliferyl heptanoate (as a lipid model), was digested with extracts of R. acicularis leaves, flowers, roots and fruits (in doses of 100 μg/mL and 1000 μg/mL) by gastric and intestinal enzymatic and electrolyte mixtures (or juices). […] In a final step, concentrations of specific markers, such as p-nitrophenol, 7-amino-4-methylcoumarin and 4-methylumbelliferone, released from an artificial nutrient mixture, were analyzed by an HPLC-DAD assay. […]
(§2) For simulation, the known standardized static gastrointestinal digestion method of Minekus et al. was used with no variation. […] The supernatant was analyzed using an HPLC-DAD assay (Section 3.7) to quantify the level of markers as p-nitrophenol, 7-amino-4-methylcoumarin and 4-methylumbelliferone formed from ethylidene-p-nitrophenyl-α-D-maltoheptaoside, Nα-benzoyl-L-arginine- 7-amino-4-methylcoumarin hydrochloride and 4-methylumbelliferyl heptanoate, respectively. […]

[3] = biological target: T3, porcine pancreatic lipase (Sus scrofa, UniProt P00591); assay: Simulated gastrointestinal digestion of artificial substrate mixture, lipase activity (4-methylumbelliferone marker, HPLC-DAD); assay type: biochemical
T3 construct: lipase from porcine pancreas; purchased Sigma-Aldrich L3126 (lipase); C3028 (colipase); host or cells: porcine pancreas (tissue-derived)
T3 sequence (P00591 1-450): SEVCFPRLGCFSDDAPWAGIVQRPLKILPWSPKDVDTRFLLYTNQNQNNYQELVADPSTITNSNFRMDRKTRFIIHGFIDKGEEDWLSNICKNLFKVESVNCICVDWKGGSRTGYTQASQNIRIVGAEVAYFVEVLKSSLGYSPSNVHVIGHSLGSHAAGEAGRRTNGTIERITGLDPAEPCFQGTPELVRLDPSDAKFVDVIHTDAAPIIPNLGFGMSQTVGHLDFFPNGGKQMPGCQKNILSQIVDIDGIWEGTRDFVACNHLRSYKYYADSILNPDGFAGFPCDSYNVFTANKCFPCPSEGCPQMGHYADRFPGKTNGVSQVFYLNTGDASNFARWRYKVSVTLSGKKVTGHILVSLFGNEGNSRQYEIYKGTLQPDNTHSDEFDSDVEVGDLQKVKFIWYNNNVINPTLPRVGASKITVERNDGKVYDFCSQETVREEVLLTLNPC
T3 sequence (P02703 23-112 partner): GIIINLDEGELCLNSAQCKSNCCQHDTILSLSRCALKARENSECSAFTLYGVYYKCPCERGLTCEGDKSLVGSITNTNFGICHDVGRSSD
Text: To study the inhibitory potential of R. acicularis extracts on the digestive enzymes, we used the standardized static, simulated gastrointestinal digestion method of Minekus et al., based on physiologically relevant conditions of digestion [77]. In brief, the artificial substrate mixture, including ethylidene-p-nitrophenyl-α-D-maltoheptaoside (as a carbohydrate model), Nα-benzoyl-L-arginine-7-amino-4-methylcoumarin hydrochloride (as a protein model) and 4-methylumbelliferyl heptanoate (as a lipid model), was digested with extracts of R. acicularis leaves, flowers, roots and fruits (in doses of 100 μg/mL and 1000 μg/mL) by gastric and intestinal enzymatic and electrolyte mixtures (or juices). […] In a final step, concentrations of specific markers, such as p-nitrophenol, 7-amino-4-methylcoumarin and 4-methylumbelliferone, released from an artificial nutrient mixture, were analyzed by an HPLC-DAD assay. […]
For simulation, the known standardized static gastrointestinal digestion method of Minekus et al. [77] was used with no variation. […] The supernatant was analyzed using an HPLC-DAD assay (Section 3.7) to quantify the level of markers as p-nitrophenol, 7-amino-4-methylcoumarin and 4-methylumbelliferone formed from ethylidene-p-nitrophenyl-α-D-maltoheptaoside, Nα-benzoyl-L-arginine- 7-amino-4-methylcoumarin hydrochloride and 4-methylumbelliferyl heptanoate, respectively. […]

[4] = system: proteases (pepsin, trypsin, chymotrypsin); assay: Simulated gastrointestinal digestion of artificial substrate mixture, protease activity (7-amino-4-methylcoumarin marker, HPLC-DAD); assay type: biochemical, porcine, bovine; settings: doses of 1–1000 μg/mL
Text: as §1, with “([…])” for “(in doses of 100 μg/mL and 1000 μg/mL)”
as §2

[5] = biological target: T4, human pancreas α-amylase (Homo sapiens, UniProt P04746); assay: α-Amylase inhibitory activity, microplate spectrophotometric assay; assay type: biochemical; settings: mean ± S.D.; read-out: IC50 against human pancreas α-amylase (converted)
T4 construct: α-amylase from human pancreas; purchased Lee Biosolutions, Inc. Cat. No. 120-15; host or cells: human pancreas (tissue-derived)
T4 sequence (P04746 16-511): T1 sequence (P04746 16-511)
Text: (§3) The α-amylase-inhibiting potential of rugosin D was studied using a microplate spectrophotometric assay with three mammalian amylases, including α-amylase from porcine pancreas, α-amylase from human saliva and α-amylase from human pancreas.

[6] = biological target: T5, human saliva α-amylase (Homo sapiens, UniProt P0DUB6); assay: as above; assay type: biochemical; settings: mean ± S.D.; read-out: IC50 against human saliva α-amylase (converted)
T5 construct: α-amylase from human saliva; purchased Sigma-Aldrich Cat. No. 0521; host or cells: human saliva
T5 sequence (P0DUB6 16-511): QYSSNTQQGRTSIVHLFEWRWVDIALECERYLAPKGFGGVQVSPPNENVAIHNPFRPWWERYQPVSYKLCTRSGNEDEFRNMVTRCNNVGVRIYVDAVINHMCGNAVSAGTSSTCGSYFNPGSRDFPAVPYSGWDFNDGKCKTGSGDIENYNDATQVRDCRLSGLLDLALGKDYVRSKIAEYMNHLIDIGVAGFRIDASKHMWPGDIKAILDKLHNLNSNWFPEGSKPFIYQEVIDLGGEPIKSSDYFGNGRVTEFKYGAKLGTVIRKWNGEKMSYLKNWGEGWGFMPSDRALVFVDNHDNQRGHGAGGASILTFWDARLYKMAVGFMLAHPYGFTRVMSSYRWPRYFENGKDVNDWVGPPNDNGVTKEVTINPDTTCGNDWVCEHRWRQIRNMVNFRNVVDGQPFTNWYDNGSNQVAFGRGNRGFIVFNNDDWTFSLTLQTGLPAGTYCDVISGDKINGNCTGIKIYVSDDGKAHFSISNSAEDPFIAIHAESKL
Text: as §3

[7] = biological target: T6, porcine pancreas α-amylase (Sus scrofa, UniProt P00690); assay: as above; assay type: biochemical; settings: mean ± S.D.; read-out: IC50 against porcine pancreas α-amylase (converted)
T6 construct: α-amylase from porcine pancreas; purchased Sigma-Aldrich Cat. No. 6255; host or cells: porcine pancreas (tissue-derived)
T6 sequence (P00690 16-511): T2 sequence (P00690 16-511)
Text: as §3

SMILES: O=C(O)[C@H]1O[C@@H](Oc2c(-c3ccc(O)c(O)c3)oc3cc(O)cc(O)c3c2=O)[C@H](O)[C@@H](O)[C@@H]1O [miquelianin, Quercetin-3-O-glucuronide]
- Pancreatic-α-amylase-inhibiting activity of HPLC zone (in words) [1]: medium activity

SMILES: CCCCCCCCCCC[C@@H](C[C@@H]1OC(=O)[C@H]1CCCCCC)OC(=O)[C@H](CC(C)C)NC=O [orlistat, reference compound]
- Lipase activity (percentage of initial) after simulated gastrointestinal digestion ([3]; 1000 μg/mL, control = 100% of enzyme activity): 38%

SMILES: O=C(O[C@@H]1O[C@@H]2COC(=O)c3cc(Oc4c(C(=O)O[C@@H]5O[C@@H]6COC(=O)c7cc(O)c(O)c(O)c7-c7c(cc(O)c(O)c7O)C(=O)O[C@H]6[C@H](OC(=O)c6cc(O)c(O)c(O)c6)[C@H]5OC(=O)c5cc(O)c(O)c(O)c5)cc(O)c(O)c4O)c(O)c(O)c3-c3c(cc(O)c(O)c3O)C(=O)O[C@H]2[C@H](OC(=O)c2cc(O)c(O)c(O)c2)[C@H]1OC(=O)c1cc(O)c(O)c(O)c1)c1cc(O)c(O)c(O)c1 [Rugosin D]
- Inhibition of protease activity in simulated digestion (in words) [4]: not substantially inhibited
- Inhibition of lipase activity in simulated digestion (in words) ([3]; doses of 1–1000 μg/mL): not substantially inhibited
- Starch protected (starch content as percentage of initial) after reaction with pancreatic amylase [1]: 82–95%
- IC50 [5]: 16.4 µM
- IC50 [6]: 36 µM
- IC50 [7]: 17.1 µM

Results, then the compound that gave them:

- Pancreatic-α-amylase-inhibiting activity of HPLC zone (in words) [1]: medium activity
SMILES: O=C(OC1O[C@@H]2COC(=O)c3cc(O)c(O)c(O)c3-c3c(cc(O)c(O)c3O)C(=O)O[C@H]2[C@H](OC(=O)c2cc(O)c(O)c(O)c2)[C@H]1OC(=O)c1cc(O)c(O)c(O)c1)c1cc(O)c(O)c(O)c1 (some centres unmarked) [tellimagrandin II, Tellimagrandin II1]

- Amylase activity (percentage of initial) after simulated gastrointestinal digestion [2]: 55%
SMILES: C[C@H]1O[C@H](O[C@H]2[C@H](O)[C@@H](O)[C@@H](O[C@H]3[C@H](O)[C@@H](O)C(O)O[C@@H]3CO)O[C@@H]2CO)[C@H](O)[C@@H](O)[C@@H]1N[C@H]1C=C(CO)[C@@H](O)[C@H](O)[C@H]1O (some centres unmarked) [Acarbose]

- Pancreatic-α-amylase-inhibiting activity of HPLC zone (in words) [1]: medium activity
SMILES: O=C(OC[C@H]1O[C@@H](OC(=O)c2cc(O)c(O)c(O)c2)[C@H](OC(=O)c2cc(O)c(O)c(O)c2)[C@@H](OC(=O)c2cc(O)c(O)c(O)c2)[C@@H]1O)c1cc(O)c(O)c(O)c1 [1,2,3,6-tetra-O-galloyl glucose, 1,2,3,6-Tetra-O-galloyl glucose]
